{
  "source": "patent US20140294856A1",
  "about": "“COMBINATION TREATMENT COMPRISING A HDAC6 INHIBITOR AND AN AKT INHIBITOR” (priority 2011, published 2014)",
  "key": {"SH-SY5Y": {"test_system": "SH-SY5Y", "assay": "Growth inhibition, SRB assay, 72 hours", "format": "cell-based", "conditions": "SH-SY5Y neuroblastoma"}, "HCT116 tumours": {"test_system": "HCT116 tumours", "assay": "Phospho-AKT levels in HCT116 tumours", "format": "in vivo, mice"}, "A549 cells": {"test_system": "A549 cells", "assay": "Impact of BSO (GSH depletion) on growth inhibition, SRB assay", "format": "cell-based", "conditions": "10 μM BSO for 24 hours"}, "HCT116 cells [1]": {"test_system": "HCT116 cells", "assay": "Growth inhibition (GI50)", "format": "cell-based, human", "quoted_text": "Different treatment scheduling are shown. […] The results are mean of n=6."}, "ABC transporters": {"test_system": "ABC transporters", "assay": "Expression of ABC transporters (protein and mRNA) in tumours", "format": "in vivo, mice", "conditions": "14 days of treatment"}, "P-gp": {"biological_target": "P-gp (Homo sapiens, UniProt P08183)", "sequence (P08183 whole entry)": "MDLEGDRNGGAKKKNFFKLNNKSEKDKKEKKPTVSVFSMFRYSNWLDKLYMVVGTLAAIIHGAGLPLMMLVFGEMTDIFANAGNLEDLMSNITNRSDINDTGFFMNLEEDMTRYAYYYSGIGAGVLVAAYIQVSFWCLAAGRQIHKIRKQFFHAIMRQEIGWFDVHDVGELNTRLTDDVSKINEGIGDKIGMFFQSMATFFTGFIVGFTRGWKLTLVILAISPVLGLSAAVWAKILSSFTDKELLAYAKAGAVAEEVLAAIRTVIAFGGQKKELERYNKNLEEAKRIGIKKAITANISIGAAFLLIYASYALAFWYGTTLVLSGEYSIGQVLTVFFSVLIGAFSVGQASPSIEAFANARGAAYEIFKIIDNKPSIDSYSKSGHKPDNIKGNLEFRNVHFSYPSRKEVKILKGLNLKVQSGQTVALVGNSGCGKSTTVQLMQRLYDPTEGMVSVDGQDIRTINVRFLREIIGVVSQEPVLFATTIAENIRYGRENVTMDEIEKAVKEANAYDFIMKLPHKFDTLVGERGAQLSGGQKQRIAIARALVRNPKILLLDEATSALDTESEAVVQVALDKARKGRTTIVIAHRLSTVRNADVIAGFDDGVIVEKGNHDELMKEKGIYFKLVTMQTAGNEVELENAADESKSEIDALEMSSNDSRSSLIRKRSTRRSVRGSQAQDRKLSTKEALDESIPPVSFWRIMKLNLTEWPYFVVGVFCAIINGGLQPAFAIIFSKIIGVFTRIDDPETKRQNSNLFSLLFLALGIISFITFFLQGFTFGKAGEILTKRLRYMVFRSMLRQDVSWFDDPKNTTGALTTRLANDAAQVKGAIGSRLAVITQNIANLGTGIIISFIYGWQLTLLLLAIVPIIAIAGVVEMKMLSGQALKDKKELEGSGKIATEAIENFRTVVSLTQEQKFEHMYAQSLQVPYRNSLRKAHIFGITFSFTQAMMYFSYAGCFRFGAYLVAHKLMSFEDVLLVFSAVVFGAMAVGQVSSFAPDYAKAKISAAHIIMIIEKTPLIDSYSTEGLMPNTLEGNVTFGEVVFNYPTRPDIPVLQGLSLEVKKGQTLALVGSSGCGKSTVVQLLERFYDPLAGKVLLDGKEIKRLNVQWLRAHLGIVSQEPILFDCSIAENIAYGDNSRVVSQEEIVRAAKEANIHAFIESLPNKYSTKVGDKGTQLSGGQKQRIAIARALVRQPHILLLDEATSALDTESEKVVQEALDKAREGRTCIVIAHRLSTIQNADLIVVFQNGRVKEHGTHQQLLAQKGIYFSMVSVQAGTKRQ"}, "RAD51": {"test_system": "RAD51", "assay": "RAD51 mRNA and protein expression", "format": "cell-based", "conditions": "in vitro and in vivo"}, "HCT116 cells [2]": {"test_system": "HCT116 cells", "assay": "Combination studies, SRB assay, combination index (CalcuSyn)", "format": "cell-based, human"}, "[3]": {"test_system": "A2780 human ovarian cancer xenograft", "assay": "Anti-tumour activity in A2780 xenograft model", "format": "in vivo", "protocol": "FIG. 5. Anti-tumour activity of HDAC-C1A in A2780 (A & B) and HCT116 (C & D) xenograft models (Tumours volumes relative to tumour volume at day 1 (A & C) and corresponding body weight (relative to body weight at day 1) (B & D)). E. Biomarkers screening at early time points following a single injection of HDAC-C1A in HCT116 xenograft at 40 mg/kg compared to a continuous 14 days treatment at the indicated dose. Tumours were excised 6 hours following the last injection.\nThe drug was stable after oral, parenteral and intravenous administration for 24 h (last time point examined). […] The Cma and AUC0-24h following i.p. injection (20 mg/kg) were 3.2 μg/mL and 11.2 μg/mL*h, respectively. […] The acid instability of HDAC-C1A could therefore be improved by enteric coating as a means to avoid breakdown in the stomach. […] HDAC-C1A was also tested in HCT116 human colon cancer xenograft model using a refined dose and scheduling. […] This dose was non-toxic (no reduction in body weight) (FIG. 5.D). The acetylated form of α-tubulin (biomarker of response to HDAC6 inhibition) could be observed after 14 days of treatment and could be detected as early as 6 hours after the 1st injection (FIG. 5.E.). The acetylated form of Histone 3 (biomarker of response of class I histones) could be observed as early as 2 hours after the 1st injection and remain after 14 days of treatment (FIG. 5.E)."}, "KELLY": {"test_system": "KELLY", "assay": "Growth inhibition, SRB assay, 72 hours", "format": "cell-based", "conditions": "KELLY neuroblastoma"}, "ABCG2": {"biological_target": "T1, ABCG2 (Homo sapiens, UniProt Q9UNQ0)", "T1 sequence (Q9UNQ0 1-655)": "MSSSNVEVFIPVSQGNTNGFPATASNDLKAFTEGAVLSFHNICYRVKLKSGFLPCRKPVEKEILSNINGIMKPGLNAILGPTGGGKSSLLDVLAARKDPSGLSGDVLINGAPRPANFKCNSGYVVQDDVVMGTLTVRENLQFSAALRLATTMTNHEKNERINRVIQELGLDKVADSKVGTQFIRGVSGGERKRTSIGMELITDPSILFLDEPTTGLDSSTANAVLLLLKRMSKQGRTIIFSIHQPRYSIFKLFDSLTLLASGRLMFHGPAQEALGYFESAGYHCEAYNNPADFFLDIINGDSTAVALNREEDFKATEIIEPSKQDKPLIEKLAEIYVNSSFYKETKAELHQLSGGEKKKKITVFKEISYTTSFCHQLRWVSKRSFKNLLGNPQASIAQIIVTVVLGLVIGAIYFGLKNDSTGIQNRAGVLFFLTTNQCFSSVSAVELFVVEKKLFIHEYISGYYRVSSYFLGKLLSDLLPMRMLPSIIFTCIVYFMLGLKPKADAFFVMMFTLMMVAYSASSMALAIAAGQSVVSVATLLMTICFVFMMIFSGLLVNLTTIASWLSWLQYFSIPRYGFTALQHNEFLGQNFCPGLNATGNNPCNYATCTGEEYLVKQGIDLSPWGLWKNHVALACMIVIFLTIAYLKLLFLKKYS", "assay": "Impact of ABCG2 on cytotoxicity, SRB assay, MCF7-MX vs MCF7"}, "HDAC1": {"biological_target": "HDAC1 (Homo sapiens, UniProt Q13547)", "sequence (Q13547 whole entry)": "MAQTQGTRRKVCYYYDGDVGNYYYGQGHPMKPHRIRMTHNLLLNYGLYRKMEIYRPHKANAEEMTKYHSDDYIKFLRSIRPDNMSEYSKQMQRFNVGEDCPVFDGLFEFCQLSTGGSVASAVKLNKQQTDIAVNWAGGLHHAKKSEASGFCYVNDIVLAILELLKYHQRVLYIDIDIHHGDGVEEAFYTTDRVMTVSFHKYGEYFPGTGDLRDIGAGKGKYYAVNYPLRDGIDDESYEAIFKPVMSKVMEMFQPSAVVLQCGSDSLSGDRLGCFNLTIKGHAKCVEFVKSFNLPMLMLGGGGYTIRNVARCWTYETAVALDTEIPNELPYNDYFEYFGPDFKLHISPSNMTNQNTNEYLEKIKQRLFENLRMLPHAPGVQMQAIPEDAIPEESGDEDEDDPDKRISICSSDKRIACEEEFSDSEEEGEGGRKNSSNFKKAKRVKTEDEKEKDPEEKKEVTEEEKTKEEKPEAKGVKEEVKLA", "assay": "Enzyme inhibition activity, Fluor-de-Lys kit", "format": "biochemical"}, "HCT116 cells [4]": {"test_system": "HCT116 cells", "assay": "Acetylation biomarkers by western blotting (with washout)", "format": "cell-based, human", "protocol": "FIG. 1. HDAC-C1A irreversible activity. A. […] inhibitory activity of HDAC-C1A was tested using HeLa nuclear extracts and compared to the negative (reversible) control HDAC-C1B. B Growth inhibitory effect of the different compounds in HCT-116 cells at indicated time and compared to growth inhibitory after 72 hours of incubation.\n(§1) HSP90 protein expression was not altered (FIG. 2)."}, "γH2AX": {"test_system": "γH2AX", "assay": "γH2AX foci formation (DNA damage marker)", "conditions": "in vitro and in vivo"}, "HCT116 cells [5]": {"test_system": "HCT116 cells", "assay": "Phospho-AKT levels by western blotting", "format": "cell-based, human", "conditions": "10 μM"}, "HDAC-8": {"biological_target": "HDAC-8 (Homo sapiens, UniProt Q9BY41)", "sequence (Q9BY41 whole entry)": "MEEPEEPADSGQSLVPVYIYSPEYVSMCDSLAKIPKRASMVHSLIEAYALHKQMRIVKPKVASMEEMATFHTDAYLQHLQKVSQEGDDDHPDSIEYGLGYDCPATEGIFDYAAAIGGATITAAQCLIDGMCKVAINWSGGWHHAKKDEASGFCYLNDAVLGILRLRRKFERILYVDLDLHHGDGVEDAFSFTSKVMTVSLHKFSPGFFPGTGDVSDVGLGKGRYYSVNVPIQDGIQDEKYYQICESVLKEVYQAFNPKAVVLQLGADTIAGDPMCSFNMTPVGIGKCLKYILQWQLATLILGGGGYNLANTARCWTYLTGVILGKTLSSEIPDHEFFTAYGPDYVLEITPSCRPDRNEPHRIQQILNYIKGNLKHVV", "assay": "Enzyme inhibition activity, Fluor-de-Lys kit", "format": "biochemical", "text": "HDAC-C1A is a particularly preferred HDAC6 inhibitor of the invention. […] HDAC-C1A is approximately 7-fold more specific for HDAC6 than for HDAC-8 and approximately 17-fold more specific for HDAC6 when compared with HDAC1 (see Table 1). […] As brain permeability remains a major limitation for drug treatment of CNS disorders, HDAC-C1A, or compounds derived from HDAC-C1A, appear to be very promising drug candidates.\n(§2) FIG. 20 (Table 1): Enzyme inhibition activity using HeLa nuclear extract and the Fluor-de-Lys kit."}, "HDAC6": {"biological_target": "HDAC6 (Homo sapiens, UniProt Q9UBN7)", "sequence (Q9UBN7 whole entry)": "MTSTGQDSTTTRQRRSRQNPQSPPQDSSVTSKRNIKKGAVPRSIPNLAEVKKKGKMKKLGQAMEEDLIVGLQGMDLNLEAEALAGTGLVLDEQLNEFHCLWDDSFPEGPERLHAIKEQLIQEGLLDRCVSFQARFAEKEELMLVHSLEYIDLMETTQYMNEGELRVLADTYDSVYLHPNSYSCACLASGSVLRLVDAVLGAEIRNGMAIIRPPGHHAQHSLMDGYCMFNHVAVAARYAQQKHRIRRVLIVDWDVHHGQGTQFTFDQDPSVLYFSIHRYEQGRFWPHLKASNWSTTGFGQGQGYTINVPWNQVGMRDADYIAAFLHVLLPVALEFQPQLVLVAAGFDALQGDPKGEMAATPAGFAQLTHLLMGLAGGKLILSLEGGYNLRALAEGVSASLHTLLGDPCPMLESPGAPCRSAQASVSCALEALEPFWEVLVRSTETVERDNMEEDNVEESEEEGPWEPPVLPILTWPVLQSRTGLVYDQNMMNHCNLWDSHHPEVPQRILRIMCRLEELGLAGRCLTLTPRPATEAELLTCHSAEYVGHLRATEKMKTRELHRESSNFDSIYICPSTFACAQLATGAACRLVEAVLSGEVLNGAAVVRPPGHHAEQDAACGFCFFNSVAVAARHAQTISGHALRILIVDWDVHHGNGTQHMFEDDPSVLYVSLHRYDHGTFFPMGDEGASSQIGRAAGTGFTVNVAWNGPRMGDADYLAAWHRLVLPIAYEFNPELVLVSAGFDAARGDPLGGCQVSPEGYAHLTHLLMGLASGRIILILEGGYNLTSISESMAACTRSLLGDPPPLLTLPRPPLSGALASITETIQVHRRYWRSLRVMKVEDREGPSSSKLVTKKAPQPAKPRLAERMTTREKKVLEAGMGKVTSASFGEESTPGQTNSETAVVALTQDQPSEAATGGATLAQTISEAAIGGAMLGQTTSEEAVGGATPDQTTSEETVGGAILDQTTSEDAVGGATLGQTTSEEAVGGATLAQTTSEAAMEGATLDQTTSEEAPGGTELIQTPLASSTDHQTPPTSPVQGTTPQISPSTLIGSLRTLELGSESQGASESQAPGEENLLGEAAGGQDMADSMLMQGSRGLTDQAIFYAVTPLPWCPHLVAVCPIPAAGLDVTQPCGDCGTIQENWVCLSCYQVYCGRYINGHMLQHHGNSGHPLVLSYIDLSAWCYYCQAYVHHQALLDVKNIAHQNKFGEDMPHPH", "assay": "Enzyme inhibition activity, Fluor-de-Lys kit", "format": "biochemical", "text": "as §2, §1"}},
  "data": [
    {"smiles": "CC(/C=C/C(=O)NO)=C\\c1ccc(NS(=O)(=O)c2ccc(N(CCCl)CCCl)cc2)cc1", "note": "[HDAC-C1A]", "values": [
      {"measurement": "GI50", "setting": "SH-SY5Y", "result": 0.09, "unit": "µg/mL"},
      {"measurement": "P-AKT in tumours", "setting": "HCT116 tumours; HDAC-C1A alone 20 mg/kg, 6 hours", "result": "up-regulation"},
      {"measurement": "P-AKT in tumours", "setting": "HCT116 tumours; HDAC-C1A combined with API-2, 24 hours after single injection", "result": "still showed increased P-AKT"},
      {"measurement": "P-AKT in tumours", "setting": "HCT116 tumours; combination regimen BEZ-235 + HDAC-C1A, 6 hours", "result": "No P-AKT was detected"},
      {"measurement": "impact of BSO on growth inhibition (GI50 ratio)", "setting": "A549 cells", "result": "No difference"},
      {"measurement": "GI50", "setting": "HCT116 cells [1]", "result": 3.7, "unit": "µM"},
      {"measurement": "expression of ABC transporters vs vehicle", "setting": "ABC transporters", "result": "No difference"},
      {"measurement": "fold resistance (GI50 ratio) P-gp over-expressing 3T3 vs parental", "setting": "P-gp", "result": 17, "unit": "fold"},
      {"measurement": "RAD51 mRNA and protein expression", "setting": "RAD51", "result": "did not increase"},
      {"measurement": "concentration of LY-294002 needed to synergise", "setting": "HCT116 cells [2]", "result": 1, "unit": "µM"},
      {"measurement": "lowest concentration synergising with rapamycin", "setting": "HCT116 cells [2]; ED50", "result": "≥ 1.9", "unit": "µM"},
      {"measurement": "body weight loss", "setting": "[3]; 80 mg/kg/day, in some animals, at 7 days, treatment stopped", "result": 10, "unit": "%"},
      {"measurement": "Tumour Growth Delay (TGD2x)", "setting": "[3]; i.p. 80 mg/kg/day", "result": "3 ± 0.3", "unit": "days"},
      {"measurement": "Tumour Growth Inhibition (TGI) compared with vehicle", "setting": "[3]; i.p. 80 mg/kg/day", "result": 74, "unit": "%"},
      {"measurement": "GI50", "setting": "KELLY", "result": 0.14, "unit": "µg/mL"},
      {"measurement": "fold resistance (GI50 ratio) MCF7-MX vs parental MCF7", "setting": "ABCG2; ABCG2 overexpressing", "result": 2.8, "unit": "fold"},
      {"measurement": "reversal of resistance by FTC in MCF7-MX cells", "setting": "ABCG2; FTC, specific inhibitor of ABCG2", "result": 5.2, "unit": "fold"},
      {"measurement": "fold more specific for HDAC6 compared with HDAC1", "setting": "HDAC1", "result": "approximately 17 fold"},
      {"measurement": "HSP90 protein expression", "setting": "HCT116 cells [4]", "result": "not altered"},
      {"measurement": "acetylation markers at low concentration and early time point", "setting": "HCT116 cells [4]; 1 μM and 4 hours", "result": "increase of acetyl-tubulin and other markers of HDAC6 inhibition"},
      {"measurement": "acetyl form of HSP90", "setting": "HCT116 cells [4]; 4 h and 24 h, 1 μM and 10 μM", "result": "dose and time dependent increase"},
      {"measurement": "acetylation of histone H3, H4 and α-tubulin after washout", "setting": "HCT116 cells [4]; treatment 4 hours, then washout", "result": "maintained at 4 hours after washout"},
      {"measurement": "γH2AX foci formation", "setting": "γH2AX", "result": "time and a dose dependent increase"},
      {"measurement": "fold increase of P-AKT", "setting": "HCT116 cells [5]; 4 h", "result": 1.5, "unit": "fold"},
      {"measurement": "fold increase of P-AKT", "setting": "HCT116 cells [5]; 24 h", "result": 2, "unit": "fold"},
      {"measurement": "fold more specific for HDAC6 than for HDAC-8", "setting": "HDAC-8", "result": "approximately 7 fold"},
      {"measurement": "IC50 for HDAC6", "setting": "HDAC6", "result": 0.063, "unit": "µg/mL"}
    ]}
  ]
}
